# How the values were obtained:
# [1] = molecular target: Neuronal acetylcholine receptor; alpha3/beta4 (Homo sapiens, UniProt P30926+P32297); assay: Displacement of [3H]epibatidine from human alpha3beta4 nAChR expressed in IMR32 cell membrane by microbeta scintillation counting method; type: cell membranes, IMR-32
# [2] = Oral bioavailability in Wistar rat at 10 ml/kg measured upto 24 hrs by LC-MS/MS analysis; type: ADME, organism-based; settings: in vivo
# [3] = molecular target: Voltage-gated inwardly rectifying potassium channel KCNH2 (Homo sapiens, UniProt Q12809); assay: Inhibition of recombinant human ERG expressed in HEK293 at -80 mV holding potential by whole-cell patch clamp method; type: cell-based
# [4] = Oral bioavailability in Beagle dog at 3 mg/kg by LC-MS/MS analysis; type: ADME, organism-based, Canis lupus familiaris; settings: in vivo
# [5] = Volume of distribution in Beagle dog at 1 mg/kg, iv by LC-MS/MS analysis; type: ADME, organism-based, Canis lupus familiaris; settings: in vivo
# Cytochrome P450 2D6 = Cytochrome P450 2D6 (Homo sapiens, UniProt P10635); assay: Inhibition of CYP2D6 in human liver microsomes using dextromethorphan as substrate incubated for 12 min in presence of NADPH by LC-MS/MS analysis; type: ADME
# Cytochrome P450 3A4 = Cytochrome P450 3A4 (Homo sapiens, UniProt P08684); assay: Inhibition of CYP3A4 in human liver microsomes using midazolam as substrate incubated for 2 min in presence of NADPH by LC-MS/MS analysis; type: ADME
# Rattus norvegicus [6] = assay: Antidepressant activity in Wistar rat assessed as immobility time at 3.0 mg/kg, po measured for 5 mins by forced swim test (reference value: 241.9 to 281.6 sec); type: functional
# Rattus norvegicus [7] = assay: Antidepressant activity in Wistar rat assessed as reduction in immobility at 1 mg/kg, po administrated for 3 days and measured for 5 mins by forced swim test relative to control; type: functional; parameters: scale not given: the % may be the effect or the level left
# Rattus norvegicus [8] = assay: Antidepressant activity in Wistar rat assessed as reduction in immobility at 3 mg/kg, po administrated for 3 days and measured for 5 mins by forced swim test relative to control; type: functional; parameters: scale not given: the % may be the effect or the level left
# Rattus norvegicus [9] = assay: Antidepressant activity in Wistar rat assessed as reduction in immobility at 10 mg/kg, po administrated for 3 days and measured for 5 mins by forced swim test relative to control; type: functional; parameters: scale not given: the % may be the effect or the level left
# [10] = Clearance in Beagle dog at 1 mg/kg, iv by LC-MS/MS analysis; type: ADME, organism-based, Canis lupus familiaris; settings: in vivo
# [11] = AUC (0 to t) in Beagle dog at 3 mg/kg, po by LC-MS/MS analysis; type: ADME, organism-based, Canis lupus familiaris; settings: in vivo
# [12] = Protein binding in dog plasma assessed as unbound fraction at […] incubated for 6 hrs by LC-MS/MS analysis; type: ADME, cell-free, Canis lupus familiaris
# [13] = molecular target: Neuronal acetylcholine receptor; alpha4/beta2 (Rattus norvegicus, UniProt P09483+P12390); assay: In vivo receptor occupancy at alpha4beta2 nAChR in Wistar rat assessed as plasma concentration pretreated for 15 mins followed by non radiolabelled ZW-104 tracer treatment and measured after 45 mins by LC-MS/MS analysis; type: functional, organism-based
# [14] = Apparent permeability in human Caco2 cells; type: ADME, cell-based; settings: caco-2
# Caco-2 = assay: Ratio of apparent permeability across basolateral to apical over apical to basolateral side in human Caco2 cells; type: ADME, cell-based
# [15] = Protein binding in rat plasma assessed as unbound fraction at […] incubated for 6 hrs by LC-MS/MS analysis; type: ADME, cell-free
# [16] = Toxicity in telemetered Beagle dog assessed as change in body temperature up to 25 mg/kg, po; type: organism-based, Canis lupus familiaris; settings: in vivo
# [17] = Toxicity in telemetered Beagle dog assessed as change in heart rate up to 25 mg/kg, po; type: organism-based, Canis lupus familiaris; settings: in vivo
# [18] = Genotoxicity in Salmonella typhimurium TA1537 in absence of metabolic activation; type: toxicity; settings: salmonella enterica subsp. enterica serovar typhimurium
# [19] = Genotoxicity in Salmonella typhimurium TA100 in absence of metabolic activation; type: toxicity; settings: salmonella enterica subsp. enterica serovar typhimurium
# [20] = molecular target: T1, Solute carrier family 22 member 2 (Homo sapiens, UniProt O15244); assay: Inhibition of OCT2 (unknown origin)
# T1 sequence (O15244 whole entry): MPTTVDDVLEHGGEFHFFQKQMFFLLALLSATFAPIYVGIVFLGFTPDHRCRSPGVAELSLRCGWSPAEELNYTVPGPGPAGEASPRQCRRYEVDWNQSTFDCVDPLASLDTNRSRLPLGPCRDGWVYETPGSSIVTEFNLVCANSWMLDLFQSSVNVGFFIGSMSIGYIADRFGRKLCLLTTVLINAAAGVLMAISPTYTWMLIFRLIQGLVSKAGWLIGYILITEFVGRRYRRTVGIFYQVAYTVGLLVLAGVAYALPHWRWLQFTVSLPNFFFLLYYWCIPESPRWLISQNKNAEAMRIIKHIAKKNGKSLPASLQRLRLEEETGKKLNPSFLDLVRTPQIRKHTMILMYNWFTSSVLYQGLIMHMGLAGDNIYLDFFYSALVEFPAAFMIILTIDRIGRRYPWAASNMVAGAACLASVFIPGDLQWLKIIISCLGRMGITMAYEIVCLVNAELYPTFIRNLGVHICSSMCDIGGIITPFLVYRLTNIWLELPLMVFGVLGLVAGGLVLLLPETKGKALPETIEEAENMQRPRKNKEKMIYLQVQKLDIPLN
# [21] = molecular target: T2, Solute carrier organic anion transporter family member 1B3 (Homo sapiens, UniProt Q9NPD5); assay: Inhibition of OATP1B3 (unknown origin)
# T2 sequence (Q9NPD5 whole entry): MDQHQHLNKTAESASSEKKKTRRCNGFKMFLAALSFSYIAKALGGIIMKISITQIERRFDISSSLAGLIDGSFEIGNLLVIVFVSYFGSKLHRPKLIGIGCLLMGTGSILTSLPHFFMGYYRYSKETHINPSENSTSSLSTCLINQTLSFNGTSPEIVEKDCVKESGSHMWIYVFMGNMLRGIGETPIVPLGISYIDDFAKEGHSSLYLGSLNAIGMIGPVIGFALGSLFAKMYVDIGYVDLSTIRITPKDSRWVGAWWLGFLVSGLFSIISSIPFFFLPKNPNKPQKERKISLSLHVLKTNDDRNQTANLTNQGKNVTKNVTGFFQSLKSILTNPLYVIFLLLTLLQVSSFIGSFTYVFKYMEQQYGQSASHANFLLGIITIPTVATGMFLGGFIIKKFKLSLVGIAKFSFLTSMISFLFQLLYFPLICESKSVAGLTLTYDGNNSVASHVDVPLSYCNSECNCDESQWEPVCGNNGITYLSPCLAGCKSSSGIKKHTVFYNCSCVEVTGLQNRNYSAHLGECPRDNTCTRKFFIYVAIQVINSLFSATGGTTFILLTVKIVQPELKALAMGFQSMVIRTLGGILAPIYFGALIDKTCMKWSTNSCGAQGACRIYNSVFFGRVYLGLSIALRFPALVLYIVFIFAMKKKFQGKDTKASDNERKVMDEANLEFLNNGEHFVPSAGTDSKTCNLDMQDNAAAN
# [22] = Genotoxicity in Salmonella typhimurium TA1537 in presence of metabolic activation; type: toxicity; settings: salmonella enterica subsp. enterica serovar typhimurium
# [23] = Genotoxicity in Salmonella typhimurium TA98 in presence of metabolic activation; type: toxicity; settings: salmonella enterica subsp. enterica serovar typhimurium
# Chain of Neuronal acetylcholine receptor; alpha3/beta4 (P30926 whole entry): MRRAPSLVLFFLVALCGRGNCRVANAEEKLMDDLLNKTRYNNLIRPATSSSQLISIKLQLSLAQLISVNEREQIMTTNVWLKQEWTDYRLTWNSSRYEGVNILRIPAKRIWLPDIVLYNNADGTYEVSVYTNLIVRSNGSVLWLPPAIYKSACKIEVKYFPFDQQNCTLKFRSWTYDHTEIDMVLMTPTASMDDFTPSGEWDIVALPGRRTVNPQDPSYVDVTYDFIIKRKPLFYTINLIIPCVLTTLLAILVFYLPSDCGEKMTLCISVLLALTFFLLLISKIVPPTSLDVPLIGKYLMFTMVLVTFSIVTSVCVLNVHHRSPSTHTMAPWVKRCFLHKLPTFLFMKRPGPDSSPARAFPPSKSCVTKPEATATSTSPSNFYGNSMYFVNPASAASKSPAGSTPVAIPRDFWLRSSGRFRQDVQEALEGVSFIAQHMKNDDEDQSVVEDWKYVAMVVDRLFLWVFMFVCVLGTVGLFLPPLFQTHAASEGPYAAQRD
# Chain of Neuronal acetylcholine receptor; alpha3/beta4 (P32297 whole entry): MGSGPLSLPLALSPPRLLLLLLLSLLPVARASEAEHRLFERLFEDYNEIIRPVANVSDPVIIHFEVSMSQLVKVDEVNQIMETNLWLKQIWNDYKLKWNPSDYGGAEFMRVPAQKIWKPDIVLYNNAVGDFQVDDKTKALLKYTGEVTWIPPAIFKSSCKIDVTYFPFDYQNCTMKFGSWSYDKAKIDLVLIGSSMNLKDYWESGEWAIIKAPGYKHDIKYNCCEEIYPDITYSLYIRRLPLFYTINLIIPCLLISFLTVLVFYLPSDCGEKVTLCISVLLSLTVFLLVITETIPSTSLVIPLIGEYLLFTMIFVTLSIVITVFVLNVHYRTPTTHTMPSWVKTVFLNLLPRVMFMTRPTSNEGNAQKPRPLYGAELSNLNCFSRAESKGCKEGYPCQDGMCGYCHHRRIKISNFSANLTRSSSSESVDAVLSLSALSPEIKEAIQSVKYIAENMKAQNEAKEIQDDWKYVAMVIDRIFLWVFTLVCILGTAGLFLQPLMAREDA
# Chain of Cytochrome P450 3A4 (P08684 whole entry): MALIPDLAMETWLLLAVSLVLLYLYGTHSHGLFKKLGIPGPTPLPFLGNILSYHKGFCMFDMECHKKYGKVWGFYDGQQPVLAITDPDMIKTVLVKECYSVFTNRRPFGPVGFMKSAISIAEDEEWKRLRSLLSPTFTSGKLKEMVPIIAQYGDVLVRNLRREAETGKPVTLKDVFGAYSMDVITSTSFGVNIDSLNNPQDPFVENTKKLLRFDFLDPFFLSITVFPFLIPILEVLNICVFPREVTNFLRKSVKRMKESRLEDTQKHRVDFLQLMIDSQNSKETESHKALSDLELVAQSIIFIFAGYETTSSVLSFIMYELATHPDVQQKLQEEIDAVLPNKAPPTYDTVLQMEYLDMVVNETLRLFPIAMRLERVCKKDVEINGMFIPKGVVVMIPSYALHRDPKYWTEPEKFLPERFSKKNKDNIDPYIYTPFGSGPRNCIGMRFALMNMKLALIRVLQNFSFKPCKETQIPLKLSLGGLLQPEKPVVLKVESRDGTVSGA
# Chain of Neuronal acetylcholine receptor; alpha4/beta2 (P09483 whole entry): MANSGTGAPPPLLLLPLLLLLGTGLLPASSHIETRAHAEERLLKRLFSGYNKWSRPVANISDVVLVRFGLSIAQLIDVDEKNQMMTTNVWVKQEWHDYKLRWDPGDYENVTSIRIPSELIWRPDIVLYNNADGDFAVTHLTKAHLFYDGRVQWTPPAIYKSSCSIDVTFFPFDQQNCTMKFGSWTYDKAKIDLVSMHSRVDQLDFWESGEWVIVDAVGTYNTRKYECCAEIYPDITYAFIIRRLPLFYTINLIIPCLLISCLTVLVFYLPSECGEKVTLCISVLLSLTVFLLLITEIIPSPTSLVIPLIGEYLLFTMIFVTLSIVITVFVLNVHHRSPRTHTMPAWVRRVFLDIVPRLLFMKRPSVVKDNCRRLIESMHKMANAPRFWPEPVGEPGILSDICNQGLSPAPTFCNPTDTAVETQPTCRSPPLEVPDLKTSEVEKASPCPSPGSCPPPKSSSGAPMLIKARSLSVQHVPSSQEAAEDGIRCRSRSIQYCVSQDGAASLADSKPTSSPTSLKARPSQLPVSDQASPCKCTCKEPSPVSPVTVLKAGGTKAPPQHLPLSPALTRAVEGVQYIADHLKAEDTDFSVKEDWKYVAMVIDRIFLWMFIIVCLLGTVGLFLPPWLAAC
# Chain of Neuronal acetylcholine receptor; alpha4/beta2 (P12390 whole entry): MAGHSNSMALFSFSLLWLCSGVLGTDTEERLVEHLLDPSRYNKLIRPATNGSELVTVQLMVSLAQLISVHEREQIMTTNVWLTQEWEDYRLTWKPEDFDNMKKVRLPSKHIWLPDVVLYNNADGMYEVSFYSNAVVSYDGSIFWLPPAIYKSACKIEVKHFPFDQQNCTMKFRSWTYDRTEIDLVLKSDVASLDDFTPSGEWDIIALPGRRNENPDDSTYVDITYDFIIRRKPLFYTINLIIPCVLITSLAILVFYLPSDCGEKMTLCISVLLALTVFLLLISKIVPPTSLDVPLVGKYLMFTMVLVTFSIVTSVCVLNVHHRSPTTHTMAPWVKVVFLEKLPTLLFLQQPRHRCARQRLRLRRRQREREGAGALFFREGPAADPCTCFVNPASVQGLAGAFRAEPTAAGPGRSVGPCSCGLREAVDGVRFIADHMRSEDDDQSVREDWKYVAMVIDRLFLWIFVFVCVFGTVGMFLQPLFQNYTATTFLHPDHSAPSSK
# Chain of Voltage-gated inwardly rectifying potassium channel KCNH2 (Q12809 whole entry): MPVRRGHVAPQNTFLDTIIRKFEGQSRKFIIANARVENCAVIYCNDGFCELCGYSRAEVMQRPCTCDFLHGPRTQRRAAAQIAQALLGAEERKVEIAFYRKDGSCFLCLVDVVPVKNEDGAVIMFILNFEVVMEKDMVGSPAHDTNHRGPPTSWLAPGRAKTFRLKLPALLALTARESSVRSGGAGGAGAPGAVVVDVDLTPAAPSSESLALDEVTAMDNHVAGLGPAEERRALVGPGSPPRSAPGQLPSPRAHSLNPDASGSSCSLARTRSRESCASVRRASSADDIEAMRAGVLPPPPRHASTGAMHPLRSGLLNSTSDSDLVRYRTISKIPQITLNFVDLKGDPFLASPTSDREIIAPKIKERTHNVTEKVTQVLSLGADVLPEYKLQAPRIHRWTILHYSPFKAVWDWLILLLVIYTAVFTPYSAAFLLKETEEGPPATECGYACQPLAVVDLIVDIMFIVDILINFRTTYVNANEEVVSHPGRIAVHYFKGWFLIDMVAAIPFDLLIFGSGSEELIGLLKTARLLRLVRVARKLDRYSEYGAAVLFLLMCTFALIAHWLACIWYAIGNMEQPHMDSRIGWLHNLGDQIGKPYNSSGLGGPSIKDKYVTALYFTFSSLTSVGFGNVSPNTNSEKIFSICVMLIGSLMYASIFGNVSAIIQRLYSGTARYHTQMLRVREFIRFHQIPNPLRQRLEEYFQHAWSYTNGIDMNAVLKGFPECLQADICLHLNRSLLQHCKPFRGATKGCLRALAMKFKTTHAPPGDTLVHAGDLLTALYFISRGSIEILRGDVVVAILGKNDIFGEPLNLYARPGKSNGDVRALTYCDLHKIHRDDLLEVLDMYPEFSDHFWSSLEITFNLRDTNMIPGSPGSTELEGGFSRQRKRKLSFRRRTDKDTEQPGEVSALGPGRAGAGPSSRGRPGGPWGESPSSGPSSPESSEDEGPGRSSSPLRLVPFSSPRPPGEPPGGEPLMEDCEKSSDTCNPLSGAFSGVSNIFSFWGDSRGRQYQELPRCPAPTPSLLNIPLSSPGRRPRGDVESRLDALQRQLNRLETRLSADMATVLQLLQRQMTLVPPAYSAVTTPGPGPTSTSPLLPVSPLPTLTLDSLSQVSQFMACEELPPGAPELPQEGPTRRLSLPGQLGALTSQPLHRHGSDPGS
# Chain of Cytochrome P450 2D6 (P10635 whole entry): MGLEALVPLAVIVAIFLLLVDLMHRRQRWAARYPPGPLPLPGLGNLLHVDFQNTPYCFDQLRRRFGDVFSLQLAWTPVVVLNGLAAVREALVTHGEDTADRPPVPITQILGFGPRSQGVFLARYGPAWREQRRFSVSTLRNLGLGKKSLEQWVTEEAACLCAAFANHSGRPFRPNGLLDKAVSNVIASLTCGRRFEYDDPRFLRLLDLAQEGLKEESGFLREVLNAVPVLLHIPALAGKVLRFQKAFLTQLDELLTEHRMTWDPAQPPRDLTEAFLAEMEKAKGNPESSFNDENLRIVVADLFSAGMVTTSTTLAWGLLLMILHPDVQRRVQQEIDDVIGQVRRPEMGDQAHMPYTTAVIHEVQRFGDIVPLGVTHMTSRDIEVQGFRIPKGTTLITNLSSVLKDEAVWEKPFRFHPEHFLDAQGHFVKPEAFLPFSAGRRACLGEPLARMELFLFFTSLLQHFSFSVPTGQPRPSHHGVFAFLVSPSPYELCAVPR
compound,measurement,setting,value
Cl.Clc1ccc(OC[C@@H]2C[C@H]3C[C@H]3N2)cn1,Ki,[1],> 10 µM
same,bioavailability,[2],66%
same,IC50,[3],> 10 µM
same,bioavailability,[4],83%
same,Vd,[5],1.3 L/kg
same,IC50,Cytochrome P450 2D6,38.1 µM
same,IC50,Cytochrome P450 3A4,> 45 µM
same,Time,Rattus norvegicus [6],155.9 s
same,Activity,Rattus norvegicus [7],29.35%
same,Activity,Rattus norvegicus [8],35.81%
same,Activity,Rattus norvegicus [9],66.4%
same,clearance,[10],10 mL/min/kg
same,AUC(0-t),[11],4350 ng·h/mL
same,fraction unbound at 6 h,[12],0.31
same,EC50,[13],259 µM
same,Papp,[14],68.8 ×10⁻⁶ cm/s
same,Ratio,Caco-2,0.7
same,fraction unbound at 6 h,[15],0.31
same,Activity,[16],Non-Toxic
same,Activity,[17],Non-Toxic
same,Activity,[18],Non-Toxic
same,Activity,[19],Non-Toxic
same,inhibition (INH),[20],Not Active
same,inhibition (INH),[21],Not Active
same,Activity,[22],Non-Toxic
same,Activity,[23],Non-Toxic
